Each molecule was assayed against T1, Dihydrofolate reductase (Rattus norvegicus, UniProt Q920D2). Details: not given.
T1 sequence (Q920D2 whole entry): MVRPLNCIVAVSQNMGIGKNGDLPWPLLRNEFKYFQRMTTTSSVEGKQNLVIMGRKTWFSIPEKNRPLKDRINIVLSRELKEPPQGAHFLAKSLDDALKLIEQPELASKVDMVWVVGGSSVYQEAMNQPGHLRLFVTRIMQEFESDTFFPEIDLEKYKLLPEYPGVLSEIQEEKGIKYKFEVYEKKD
COc1cc(Cc2sc3nc(N)nc(N)c3c2C)cc(OC)c1OC was tested, and the IC50 was 51 µM. Work on Cc1sc2nc(N)nc(N)c2c1-c1ccc(Cl)cc1 yielded an IC50 of over 100 µM. Molecule Nc1nc(N)c2c3c(sc2n1)CCCCC3 has an IC50 of 1.3 µM. Molecule Nc1nc(N)c2c3c(sc2n1)CCCC3 has an IC50 of 3.9 µM. With COc1ccc(OC)c(CCc2csc3nc(N)nc(N)c23)c1 the IC50 was 3.1 µM. COc1ccc(OC)c(Cc2sc3nc(N)nc(N)c3c2C)c1 was tested, and the IC50 was 0.4 µM. COc1ccc(OC)c(CCc2sc3nc(N)nc(N)c3c2C)c1 gave an IC50 of 5.9 µM. Molecule Nc1nc(N)c2c3c(sc2n1)CN(Cc1ccccc1)CC3 has an IC50 of 0.57 µM. Cc1sc2nc(N)nc(N)c2c1Cc1ccccc1 showed an IC50 of over 37 µM. COc1ccc(OC)c(CCCc2csc3nc(N)nc(N)c23)c1 was tested, and the IC50 was 26 µM. Molecule Cc1c(Cc2ccccc2)sc2nc(N)nc(N)c12 has an IC50 of 14 µM. Work on Nc1nc(N)c2c3c(sc2n1)CCCCCCCCCC3 yielded an IC50 of 9.3 µM. Cc1c(-c2ccc(Cl)c(Cl)c2)sc2nc(N)nc(N)c12 showed an IC50 of 4.6 µM. Molecule COc1ccc(OC)c(-c2sc3nc(N)nc(N)c3c2C)c1 has an IC50 of 0.37 µM. With COc1cc(-c2sc3nc(N)nc(N)c3c2C)cc(OC)c1OC the IC50 was 1.8 µM. COc1cc(CCc2sc3nc(N)nc(N)c3c2C)cc(OC)c1OC showed an IC50 of 25 µM.

These molecules were tested against T2, Dihydrofolate reductase (Pneumocystis carinii, UniProt P16184) (assay: Tested for inhibitory activity against dihydrofolate reductase in pneumocystis carinii). Details: not given.
T2 sequence (P16184 whole entry): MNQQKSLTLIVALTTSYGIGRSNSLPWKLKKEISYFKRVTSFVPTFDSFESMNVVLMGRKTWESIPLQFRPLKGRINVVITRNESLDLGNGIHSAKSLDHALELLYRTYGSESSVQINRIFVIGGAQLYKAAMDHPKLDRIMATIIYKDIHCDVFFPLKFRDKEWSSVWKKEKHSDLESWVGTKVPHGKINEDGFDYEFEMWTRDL
Nc1nc(N)c2c3c(sc2n1)CN(Cc1ccccc1)CC3 showed an IC50 of 5.2 µM.

These molecules were tested against T3, Bifunctional dihydrofolate reductase-thymidylate synthase (Toxoplasma gondii, UniProt Q07422) (assay: Tested for inhibitory activity against dihydrofolate reductase in Toxoplasma gondii). Details: not given.
T3 sequence (Q07422 whole entry): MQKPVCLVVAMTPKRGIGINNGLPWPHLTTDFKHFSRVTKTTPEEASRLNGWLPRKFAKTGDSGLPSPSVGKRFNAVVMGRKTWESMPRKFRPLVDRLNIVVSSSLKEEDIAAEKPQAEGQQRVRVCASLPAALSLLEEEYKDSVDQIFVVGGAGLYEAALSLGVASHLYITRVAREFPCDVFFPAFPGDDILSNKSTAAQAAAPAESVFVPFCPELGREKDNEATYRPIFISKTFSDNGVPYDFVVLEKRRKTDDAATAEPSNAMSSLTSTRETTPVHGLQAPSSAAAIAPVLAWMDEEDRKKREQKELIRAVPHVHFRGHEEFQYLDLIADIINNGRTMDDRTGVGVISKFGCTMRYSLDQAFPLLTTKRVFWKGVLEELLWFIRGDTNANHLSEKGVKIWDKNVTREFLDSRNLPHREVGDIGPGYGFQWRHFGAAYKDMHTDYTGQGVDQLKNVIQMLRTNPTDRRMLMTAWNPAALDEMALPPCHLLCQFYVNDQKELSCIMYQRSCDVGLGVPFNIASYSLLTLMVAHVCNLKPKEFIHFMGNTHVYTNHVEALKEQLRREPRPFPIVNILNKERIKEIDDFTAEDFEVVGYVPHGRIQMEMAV
In the case of Nc1nc(N)c2c3c(sc2n1)CN(Cc1ccccc1)CC3, the IC50 is reported as 0.85 µM.

What follows are molecules tested against T4, Dihydrofolate reductase (Homo sapiens, UniProt P00374) (assay: Tested for inhibitory activity against dihydrofolate reductase in human). Details: not given.
T4 sequence (P00374 whole entry): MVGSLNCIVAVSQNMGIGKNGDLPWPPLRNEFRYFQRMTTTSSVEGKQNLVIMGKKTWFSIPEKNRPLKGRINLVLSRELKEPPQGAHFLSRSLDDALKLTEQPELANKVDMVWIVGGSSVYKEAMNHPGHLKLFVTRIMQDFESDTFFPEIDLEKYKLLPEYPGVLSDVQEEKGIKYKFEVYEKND
Work on COc1cc(Cc2sc3nc(N)nc(N)c3c2C)cc(OC)c1OC yielded an IC50 of over 10 µM. Molecule COc1ccc(OC)c(Cc2sc3nc(N)nc(N)c3c2C)c1 has an IC50 of 0.73 µM. With COc1ccc(OC)c(CCc2sc3nc(N)nc(N)c3c2C)c1 the IC50 was over 10 µM. COc1ccc(OC)c(-c2sc3nc(N)nc(N)c3c2C)c1 showed an IC50 of 0.75 µM. COc1cc(-c2sc3nc(N)nc(N)c3c2C)cc(OC)c1OC was tested, and the IC50 was over 10 µM. With COc1cc(CCc2sc3nc(N)nc(N)c3c2C)cc(OC)c1OC the IC50 was over 10 µM.

These molecules were tested against Dihydrofolate reductase (Lactobacillus casei, UniProt P00381) (assay: Tested for inhibitory activity against dihydrofolate reductase in Lactobacillus casei). Details: not given.
Dihydrofolate reductase (Lactobacillus casei, UniProt P00381), sequence (P00381 whole entry): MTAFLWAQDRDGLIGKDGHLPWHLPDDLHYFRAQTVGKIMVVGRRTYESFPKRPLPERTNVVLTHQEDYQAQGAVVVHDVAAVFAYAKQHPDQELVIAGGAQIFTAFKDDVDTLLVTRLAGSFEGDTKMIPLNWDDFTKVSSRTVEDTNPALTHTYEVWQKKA
Design: species or system Lacticaseibacillus casei
Molecule Cc1sc2nc(N)nc(N)c2c1-c1ccc(Cl)cc1 has an IC50 of over 50 µM. Cc1sc2nc(N)nc(N)c2c1Cc1ccccc1 gave an IC50 of over 50 µM. Work on Cc1c(Cc2ccccc2)sc2nc(N)nc(N)c12 yielded an IC50 of 1.3 µM. Nc1nc(N)c2c3c(sc2n1)CCCCCCCCCC3 showed an IC50 of 12 µM. In the case of Cc1c(-c2ccc(Cl)c(Cl)c2)sc2nc(N)nc(N)c12, the IC50 is reported as 2 µM.

These molecules were tested on CCRF-CEM (assay: Tested for cell growth inhibition in CCRF-CEM lymphoblasts). Details: Homo sapiens.
Type: functional, cell-based
Nc1nc(N)c2c3c(sc2n1)CCCCCC3 was tested, and the IC50 was 12 µM. In the case of Cc1c(-c2ccccc2)sc2nc(N)nc(N)c12, the IC50 is reported as 14 µM. In the case of Cc1c(Cc2ccccc2)sc2nc(N)nc(N)c12, the IC50 is reported as 15 µM. With Nc1nc(N)c2c3c(sc2n1)CCCCCCCCCC3 the IC50 was 3.7 µM.

From ChEMBL document CHEMBL1126852 (J Med Chem, 1993)
